Results taken from US8580794B2 (AbbVie Inc., priority 2009, dated 2013).

Columns and labels:
RS4;11 cells [1] = conditions: Blood, 2008, Vol. 111, 2300-2309; cited from earlier work
GST-Bc1-2 = GST-Bc1-2 (Homo sapiens, UniProt P10415); assay: Time Resolved-Fluorescence Resonance Energy Transfer (TR-FRET) Bcl-2 binding assay with F-Bak peptide probe; conditions: GST-Bcl-2 1 nM, F-Bak probe 100 nM, Tb-anti-GST 1 nM; '<' = below limit of detection; read-out: TR-FRET Bcl-2 Binding Ki
RS4;11 cells [2] = assay: RS4;11 Cell Viability Assay (CellTiter Glo); format: cell-based; conditions: Homo sapiens, RS4-11, 48 h, 50,000 cells per well, 10% human serum;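 also: RS4,11 acute lymphoblastic leukemia cells, viability as percent of untreated control cells, EC50 for loss of viable cells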
Description: The acute lymphoblastic leukemia (ALL) cell line RS4;11 was used as the primary human cell line to assess the cellular activity of Bcl-2 selective agents in vitro and their efficacy in vivo.
Cell cytotoxicity EC50 values were assessed using CellTiter Glo (Promega) according to the manufacturer's recommendations. The EC50 values were determined as a percentage of viable cells following treatment compared to the untreated control cells.

Sequence of GST-Bc1-2 (P10415 whole entry): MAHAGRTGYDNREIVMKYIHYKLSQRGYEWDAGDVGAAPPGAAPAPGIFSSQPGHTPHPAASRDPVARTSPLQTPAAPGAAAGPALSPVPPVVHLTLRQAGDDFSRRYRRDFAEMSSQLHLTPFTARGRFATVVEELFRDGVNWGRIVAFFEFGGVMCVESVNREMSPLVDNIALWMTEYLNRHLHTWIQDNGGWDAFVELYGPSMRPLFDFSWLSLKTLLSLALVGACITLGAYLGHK

Row | Compound | sensitivity of RS4;11 cells to inhibitor (RS4;11 cells [1]) | Ki (GST-Bc1-2) [nM] | EC50 (RS4;11 cells [2]) [nM]
1 | CN(C)CC[C@H](CSc1ccccc1)Nc1ccc(S(=O)(=O)NC(=O)c2ccc(N3CCN(Cc4ccccc4-c4ccc(Cl)cc4)CC3)cc2)cc1[N+](=O)[O-] [ABT-737, N-(4-(4-((4′-chloro(1,1′-biphenyl)-2-yl)methyl)piperazin-1-yl)benzoyl)-4-(((1R)-3-(dimethylamino)-1-((phenylsulfanyl)methyl)propyl)amino)-3-nitrobenzenesulfonamide] | sensitive |  | 
2 | COC1CCN(C(=O)Nc2ccc(S(=O)(=O)NC(=O)c3ccc(N4CCN(CC5=C(c6ccc(Cl)cc6)CC(C)(C)CC5)CC4)cc3Oc3cnc4[nH]ccc4c3)cc2[N+](=O)[O-])CC1 [Example 386, N-(4-{[4-(4-{[2-(4-chlorophenyl)-4,4-dimethylcyclohex-1-en-1-yl]methyl}piperazin-1-yl)-2-(1H-pyrrolo[2,3-b]pyridin-5-yloxy)benzoyl]sulfamoyl}-2-nitrophenyl)-4-methoxypiperidine-1-carboxamide] |  | < 0.01 | 8.38
3 | Cc1nc2c(s1)CC(COc1ncc(S(=O)(=O)NC(=O)c3ccc(N4CCN(CC5=C(c6ccc(Cl)cc6)CC(C)(C)CC5)CC4)cc3Oc3cnc4[nH]ccc4c3)cc1Cl)CC2 (stereo not drawn) [Example 387] |  | < 0.01 | 911
4 | CC1(C)CCC(CN2CCN(c3ccc(C(=O)NS(=O)(=O)c4cnc5c(ccn5CC5CCOCC5)c4)c(Oc4cnc5[nH]ccc5c4)c3)CC2)=C(c2ccc(Cl)cc2)C1 [Example 388, 4-(4-{[2-(4-chlorophenyl)-4,4-dimethylcyclohex-1-en-1-yl]methyl}piperazin-1-yl)-2-(1H-pyrrolo[2,3-b]pyridin-5-yloxy)-N-{[1-(tetrahydro-2H-pyran-4-ylmethyl)-1H-pyrrolo[2,3-b]pyridin-5-yl]sulfonyl}benzamide] |  | 0.812 | > 1000
5 | CC1(C)CCC(CN2CCN(c3ccc(C(=O)NS(=O)(=O)c4cnc5c(c4)c(Cl)cn5CC4CCOCC4)c(Oc4cnc5[nH]ccc5c4)c3)CC2)=C(c2ccc(Cl)cc2)C1 [Example 389, 4-(4-{[2-(4-chlorophenyl)-4,4-dimethylcyclohex-1-en-1-yl]methyl}piperazin-1-yl)-N-{[3-chloro-1-(tetrahydro-2H-pyran-4-ylmethyl)-1H-pyrrolo[2,3-b]pyridin-5-yl]sulfonyl}-2-(1H-pyrrolo[2,3-b]pyridin-5-yloxy)benzamide] |  | 0.774 | 733
6 | COCC1(C)CCC(CN2CCN(c3ccc(C(=O)NS(=O)(=O)c4ccc(NCC5CCOCC5)c([N+](=O)[O-])c4)c(Oc4cnc5[nH]ccc5c4)c3)CC2)=C(c2ccc(Cl)cc2)C1 (stereo not drawn) [Example 390, 4-(4-{[2-(4-chlorophenyl)-4-(methoxymethyl)-4-methylcyclohex-1-en-1-yl]methyl}piperazin-1-yl)-N-({3-nitro-4-[(tetrahydro-2H-pyran-4-ylmethyl)amino]phenyl}sulfonyl)-2-(1H-pyrrolo[2,3-b]pyridin-5-yloxy)benzamide] |  | < 0.01 | 5.06
7 | CC1(C)CCC(CN2CCN(c3ccc(C(=O)NS(=O)(=O)c4ccc(OCC5CCC(CO)(CO)CC5)c([N+](=O)[O-])c4)c(Oc4cnc5[nH]ccc5c4)c3)CC2)=C(c2ccc(Cl)cc2)C1 [Example 391, N-[(4-{[4,4-bis(hydroxymethyl)cyclohexyl]methoxy}-3-nitrophenyl)sulfonyl]-4-(4-{[2-(4-chlorophenyl)-4,4-dimethylcyclohex-1-en-1-yl]methyl}piperazin-1-yl)-2-(1H-pyrrolo[2,3-b]pyridin-5-yloxy)benzamide] |  | < 0.01 | 8.41
8 | COC1CCN(C(=O)Nc2ccc(S(=O)(=O)NC(=O)c3ccc(N4CCN(CC5=C(c6ccc(Cl)cc6)CC(C)(C)CC5)CC4)cc3Oc3cnc4[nH]ccc4c3)cc2Cl)CC1 [Example 392, N-(2-chloro-4-{[4-(4-{[2-(4-chlorophenyl)-4,4-dimethylcyclohex-1-en-1-yl]methyl}piperazin-1-yl)-2-(1H-pyrrolo[2,3-b]pyridin-5-yloxy)benzoyl]sulfamoyl}phenyl)-4-methoxypiperidine-1-carboxamide] |  | 0.171 | > 1000
9 | CC1(C)CCC(CN2CCN(c3ccc(C(=O)NS(=O)(=O)c4ccc(NC(=O)N5CCC(C#N)CC5)c(Cl)c4)c(Oc4cnc5[nH]ccc5c4)c3)CC2)=C(c2ccc(Cl)cc2)C1 [Example 393, N-(2-chloro-4-{[4-(4-{[2-(4-chlorophenyl)-4,4-dimethylcyclohex-1-en-1-yl]methyl}piperazin-1-yl)-2-(1H-pyrrolo[2,3-b]pyridin-5-yloxy)benzoyl]sulfamoyl}phenyl)-4-cyanopiperidine-1-carboxamide] |  | 0.263 | > 1000
10 | CC1(C)CCC(CN2CCN(c3ccc(C(=O)NS(=O)(=O)c4ccc(NC(=O)N5CCC(C)(O)CC5)c(Cl)c4)c(Oc4cnc5[nH]ccc5c4)c3)CC2)=C(c2ccc(Cl)cc2)C1 [Example 394, N-(2-chloro-4-{[4-(4-{[2-(4-chlorophenyl)-4,4-dimethylcyclohex-1-en-1-yl]methyl}piperazin-1-yl)-2-(1H-pyrrolo[2,3-b]pyridin-5-yloxy)benzoyl]sulfamoyl}phenyl)-4-hydroxy-4-methylpiperidine-1-carboxamide] |  | 0.132 | 461
11 | COCC1CCN(C(=O)Nc2ccc(S(=O)(=O)NC(=O)c3ccc(N4CCN(CC5=C(c6ccc(Cl)cc6)CC(C)(C)CC5)CC4)cc3Oc3cnc4[nH]ccc4c3)cc2Cl)CC1 [Example 395, N-(2-chloro-4-{[4-(4-{[2-(4-chlorophenyl)-4,4-dimethylcyclohex-1-en-1-yl]methyl}piperazin-1-yl)-2-(1H-pyrrolo[2,3-b]pyridin-5-yloxy)benzoyl]sulfamoyl}phenyl)-4-(methoxymethyl)piperidine-1-carboxamide] |  | 0.257 | > 1000
12 | CC1(C)CCC(CN2CCN(c3ccc(C(=O)NS(=O)(=O)c4ccc(NC(=O)N5CCC(N6CCOCC6)CC5)c(Cl)c4)c(Oc4cnc5[nH]ccc5c4)c3)CC2)=C(c2ccc(Cl)cc2)C1 [Example 398, N-(2-chloro-4-{[4-(4-{[2-(4-chlorophenyl)-4,4-dimethylcyclohex-1-en-1-yl]methyl}piperazin-1-yl)-2-(1H-pyrrolo[2,3-b]pyridin-5-yloxy)benzoyl]sulfamoyl}phenyl)-4-(morpholin-4-yl)piperidine-1-carboxamide] |  | 0.149 | 548
13 | COCC1(O)CCC(COc2ncc(S(=O)(=O)NC(=O)c3ccc(N4CCN(CC5=C(c6ccc(Cl)cc6)CC(C)(C)CC5)CC4)cc3Oc3cnc4[nH]ccc4c3)cc2Cl)CC1 (stereo not drawn) [Example 399, N-[(5-chloro-6-{[trans-4-hydroxy-4-(methoxymethyl)cyclohexyl]methoxy}pyridin-3-yl)sulfonyl]-4-(4-{[2-(4-chlorophenyl)-4,4-dimethylcyclohex-1-en-1-yl]methyl}piperazin-1-yl)-2-(1H-pyrrolo[2,3-b]pyridin-5-yloxy)benzamide] |  | < 0.01 | 127
14 | CC1(C)CCC(CN2CCN(c3ccc(C(=O)NS(=O)(=O)c4cnc(OC[C@H]5CC[C@](O)(CO)CC5)c(Cl)c4)c(Oc4cnc5[nH]ccc5c4)c3)CC2)=C(c2ccc(Cl)cc2)C1 [Example 400, N-[(5-chloro-6-{[cis-4-hydroxy-4-(hydroxymethyl)cyclohexyl]methoxy}pyridin-3-yl)sulfonyl]-4-(4-{[2-(4-chlorophenyl)-4,4-dimethylcyclohex-1-en-1-yl]methyl}piperazin-1-yl)-2-(1H-pyrrolo[2,3-b]pyridin-5-yloxy)benzamide] |  | 0.031 | 64
15 | CC1(C)CCC(CN2CCN(c3ccc(C(=O)NS(=O)(=O)c4cnc(OC[C@H]5CC[C@@](O)(CO)CC5)c(Cl)c4)c(Oc4cnc5[nH]ccc5c4)c3)CC2)=C(c2ccc(Cl)cc2)C1 [Example 401, N-[(5-chloro-6-{[trans-4-hydroxy-4-(hydroxymethyl)cyclohexyl]methoxy}pyridin-3-yl)sulfonyl]-4-(4-{[2-(4-chlorophenyl)-4,4-dimethylcyclohex-1-en-1-yl]methyl}piperazin-1-yl)-2-(1H-pyrrolo[2,3-b]pyridin-5-yloxy)benzamide] |  | < 0.01 | 26.6
16 | O=C(NS(=O)(=O)c1ccc(NCC2CCOCC2)c([N+](=O)[O-])c1)c1ccc(N2CCN(CC3=C(c4ccc(Cl)cc4)CCCC3)CC2)cc1Oc1cnc2[nH]ccc2c1 [Example 403, 4-(4-{[2-(4-chlorophenyl)cyclohex-1-en-1-yl]methyl}piperazin-1-yl)-N-({3-nitro-4-[(tetrahydro-2H-pyran-4-ylmethyl)amino]phenyl}sulfonyl)-2-(1H-pyrrolo[2,3-b]pyridin-5-yloxy)benzamide] |  | < 0.01 | 34
17 | CC1(C(=O)O)CCC(c2ccc(Cl)cc2)=C(CN2CCN(c3ccc(C(=O)NS(=O)(=O)c4ccc(NCC5CCOCC5)c([N+](=O)[O-])c4)c(Oc4cnc5[nH]ccc5c4)c3)CC2)C1 (stereo not drawn) [Example 404, 4-(4-chlorophenyl)-1-methyl-3-[(4-{4-[({3-nitro-4-[(tetrahydro-2H-pyran-4-ylmethyl)amino]phenyl}sulfonyl)carbamoyl]-3-(1H-pyrrolo[2,3-b]pyridin-5-yloxy)phenyl}piperazin-1-yl)methyl]cyclohex-3-ene-1-carboxylic acid] |  | < 0.01 | > 1000
